Test: xn = mol fraction of the nth substance listed
Conditions: 101 kPa

CCCC[n+]1ccn(C)c1.O=[N+]([O-])[O-] + CCO
viscosity [mPa·s]
Conditions | x2 = 0 | x2 = 0.2 | x2 = 0.4 | x2 = 0.6
283.15 K | 400 | 121 | 46.4 | 18.9
288.15 K | 290 | 93 | 37.8 | 15.9
293.15 K | 210 | 73 | – | 13.5
298.15 K | – | – | 26.1 | 11.6
303.15 K | 121 | 47.1 | 22 | –
308.15 K | 94 | – | 18.8 | 8.84
313.15 K | 74 | – | 16.3 | 7.81
318.15 K | 59.4 | – | – | 6.95
323.15 K | 48.2 | 22.8 | 12.4 | 6.23
328.15 K | 39.6 | 19.6 | 11 | 5.62
333.15 K | 32.9 | 16.9 | 9.8 | 5.1
